Measured values as given in publication PMC12394665, “Structural and biochemical basis for activity of Aspergillus nidulans α-1,3-glucanases from glycoside hydrolase family 71” (Communications Biology, 2025).

How the values were obtained:
[1] = biological target: T1, AnGH71C (Aspergillus nidulans, UniProt G5EB58); test: X-ray crystal structure (soak), […] Å; details: crystal soaked 2 min with saturating ligand; two glucose molecules in the binding cleft per protein molecule
T1 construct: gene ANIA_07349; putative signal peptide removed; N-terminal His6 tag, modified pET-28a with TEV site; recombinant E. coli BL21 (DE3); IMAC and gel filtration
T1 sequence (G5EB58 23-431): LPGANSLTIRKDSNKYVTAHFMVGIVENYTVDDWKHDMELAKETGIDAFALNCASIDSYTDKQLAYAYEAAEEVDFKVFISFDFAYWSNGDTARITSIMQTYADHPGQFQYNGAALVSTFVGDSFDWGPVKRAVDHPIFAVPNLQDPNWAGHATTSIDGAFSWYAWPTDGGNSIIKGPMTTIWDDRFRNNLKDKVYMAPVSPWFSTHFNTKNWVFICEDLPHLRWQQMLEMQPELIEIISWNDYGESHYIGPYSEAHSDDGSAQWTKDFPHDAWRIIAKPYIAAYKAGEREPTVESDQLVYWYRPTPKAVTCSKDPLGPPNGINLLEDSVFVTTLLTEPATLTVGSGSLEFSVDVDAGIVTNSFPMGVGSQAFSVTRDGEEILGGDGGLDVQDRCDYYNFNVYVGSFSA

[2] = biological target: T1, AnGH71C; test: X-ray crystal structure (soak), […] Å; format: binding

In the case of OC[C@H]1OC(O)[C@H](O)[C@@H](O)[C@@H]1O (stereo partly drawn) [glucose], the “X-ray crystal structure (soak), 1.37 Å” value [1] is reported as “glucose-soaked crystals each contain two glucose molecules located in the same position”.

With OC[C@H]1O[C@H](O[C@@H]2[C@@H](O)[C@@H](O[C@@H]3[C@@H](O)[C@@H](O[C@H]4[C@H](O)[C@@H](CO)OC(O)[C@@H]4O)O[C@H](CO)[C@H]3O)O[C@H](CO)[C@H]2O)[C@H](O)[C@@H](O)[C@@H]1O (stereo partly drawn) [nigerotetraose] the “X-ray crystal structure (soak), 1.92 Å” value ([2]; crystal soaked 2 min with saturating ligand, active-site cleft, -4 to -1 subsites among others, α- and β-anomers) was “Complexes of AnGH71C with glucose and nigerotriose/nigerotetraose were obtained by soaking crystals with ligand”.

For OC[C@H]1O[C@H](O[C@@H]2[C@@H](O)[C@@H](O[C@H]3[C@H](O)[C@@H](CO)OC(O)[C@@H]3O)O[C@H](CO)[C@H]2O)[C@H](O)[C@@H](O)[C@@H]1O (stereo partly drawn) [nigerotriose], the “X-ray crystal structure (soak), 1.92 Å” value ([2]; crystal soaked with nigerotetraose, nigerotriose in active-site cleft subsites, one extra on cleft surface in chain B) was “four protein molecules of the nigerotetraose-soaked crystals contain distinct combinations of nigerotriose and nigerotetraose”.
